What was measured:
[1] = Dynamic (water) vapor sorption (DVS); assay type: physicochemical
Description: Dynamic (water) vapor sorption (DVS) is a method well known in the art to monitor the adsorption of water on a solid material. Therefore, DVS is a suitable method to determine the hygroscopic nature of a pharmaceutical active ingredient.
The crystalline form A described in WO 06/060808 (i.e. the free base) and the present composition (as obtained in example 3 further below) are subjected to a DVS experiment; results are shown in FIG. 4 and in the below Table 1. The crystalline composition is less prone to water uptake under humidity, and is easy to formulate compared to the crystalline anhydrous (“free base”) form of Ezetimibe (see Table 1).
Dynamic (water) vapour sorption (DVS) is performed with a Surface Measurement Systems Ltd. DVS-1 water sorption analyzer or with SPS11-100n moisture sorption instrument from Projekt Meβtechnik, Ulm, Germany.
Program: The relative humidity is kept at starting value of 0% for 5 hours, then continuously scanned from 0% to 60%, kept constant at 60% for 4 hours, and then scanned to 0% relative humidity, and kept constant for 4 hours. The scanning change rate of relative humidity is 5% per hour.

[2] = test system: LDL levels; settings: Ezetimibe added to statin therapy; compared with 6% by doubling the dose of statins; cited from earlier work

Compound: O=C1[C@H](CC[C@H](O)c2ccc(F)cc2)[C@@H](c2ccc(O)cc2)N1c1ccc(F)cc1 [1-(4-Fluorophenyl)-3(R)-[3-(4-fluorophenyl)-3(S)-hydroxypropyl]-4(S)-(4-hydroxyphenyl)azetidin-2-one]
- Water vapor sorption: water content after 4 h at 60% r.h. ([1]; after 4 h at 60% r.h.): 4.3%
- Water vapor sorption: water content after 10 h at 50% r.h. ([1]; after 10 h at 50% r.h.): 4.0%
- water uptake ([1]; at 60% relative humidity, FIG. 4): about 4.3%
- relative humidity at which hydrate formation starts ([1]; increasing ambient humidity, FIG. 4 dashed line): about 50%

Compound: O=C1[C@H](CC[C@H](O)c2ccc(F)cc2)[C@@H](c2ccc(O)cc2)N1c1ccc(F)cc1 [Ezetimibe, 1-(4-Fluorophenyl)-3(R)-[3-(4-fluorophenyl)-3(S)-hydroxypropyl]-4(S)-(4-hydroxyphenyl)azetidin-2-one]
- reduction in LDL levels [2]: 15%

Compound: O=C1[C@H](CC[C@H](O)c2ccc(F)cc2)[C@@H](c2ccc(O)cc2)N1c1ccc(F)cc1 [hydrate form]
- relative humidity below which the hydrate begins to lose water ([1]; decreasing humidity, FIG. 4): about 25%

Reference: patent US20140155371A1, “MULTICOMPONENT CRYSTALLINE SYSTEM OF EZETIMIBE AND PROLINE” (BASF SE, priority 2011, published 2014)
